This is an account of results in PubChem BioAssay (NCI).

Among the test systems are OVCAR-4 ovarian; CAKI-1 renal; MALME-3M melanoma; HL-60(TB) leukemia; RXF 393 renal; HCT-116 colon; MCF7 breast; 786-0 renal; NCI/ADR-RES ovarian; SN12C renal.
Holding throughout (experiment): growth of human tumour cells (NCI), 48 h

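Growth conditions: 96-well plates. Treatment: test compound, 48 hours, 5 concentrations. Analysis: linear interpolation between bracketing concentrations; unreached endpoints set to highest concentration. At the GI50, growth is halved. The concentration for full growth arrest is given as TGI.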

Consider `C#C[C@]1(O)CC[C@H]2[C@@H]3CC=C4c5nc(N)sc5CC[C@]4(C)[C@H]3CC[C@@]21C`, for which the GI50 in the assay with OVCAR-4 ovarian is 13.2 µM; in the assay with CAKI-1 renal, 3.08 µM; with MALME-3M melanoma, 2.83 µM; in the assay with HL-60(TB) leukemia, 2.65 µM; in the assay with RXF 393 renal, 1.81 µM; with HCT-116 colon, 3.91 µM. Besides, the GI50 with MCF7 breast is 3.54 µM; in the assay on 786-0 renal, 2.06 µM; in the assay on NCI/ADR-RES ovarian, 3.19 µM; in the assay on SN12C renal, 10.1 µM. Also, the TGI in the assay with OVCAR-4 ovarian worked out at 70.5 µM; in the assay on CAKI-1 renal, 14.8 µM; in the assay with MALME-3M melanoma it was 8.98 µM; in the assay on HL-60(TB) leukemia, 7.04 µM; in the assay with RXF 393 renal it was 3.72 µM; with HCT-116 colon it was 19.6 µM. Besides, the TGI is 10.1 µM in the assay with MCF7 breast, 4.41 µM in the assay on 786-0 renal, 16 µM in the assay with NCI/ADR-RES ovarian and 30.6 µM in the assay with SN12C renal.

Consider `CC1(C)N=C(N)N=C(N)N1c1cccc(CCc2ccccc2)c1`, for which the GI50 with OVCAR-4 ovarian was 0.528 µM; with CAKI-1 renal it was 40.2 µM; with MALME-3M melanoma, 1.04 µM; with HL-60(TB) leukemia, 1.89 µM; in the assay on RXF 393 renal it was 3.82 µM; in the assay with HCT-116 colon, 0.208 µM. Besides, the GI50 with MCF7 breast is 0.297 µM; in the assay with 786-0 renal it was 0.799 µM; with NCI/ADR-RES ovarian, more than 100 µM; with SN12C renal, 0.456 µM. Also, the TGI in the assay with OVCAR-4 ovarian was 79.5 µM; in the assay with CAKI-1 renal, more than 100 µM; in the assay with MALME-3M melanoma it was more than 68.8 µM; in the assay on HL-60(TB) leukemia it was 28.7 µM; with RXF 393 renal, more than 100 µM; in the assay on HCT-116 colon, more than 100 µM. Further, the TGI in the assay on MCF7 breast is more than 43 µM; in the assay with 786-0 renal, more than 100 µM; in the assay on NCI/ADR-RES ovarian it was more than 100 µM; in the assay with SN12C renal it was more than 100 µM.

Consider `CC1(C)C2CCC13C(=O)C1OC3(C2)C2C(=O)c3c(ccc4c3ccc3ccccc34)C(=O)C12` (stereo not drawn), for which the GI50 in the assay on OVCAR-4 ovarian is 56.1 µM; with CAKI-1 renal, 20 µM; with MALME-3M melanoma it was 25.2 µM; with RXF 393 renal, 84 µM; in the assay with HCT-116 colon, more than 36.9 µM; with MCF7 breast, 31.6 µM. Besides, the GI50 was more than 36.3 µM in the assay on 786-0 renal, more than 46.7 µM in the assay on NCI/ADR-RES ovarian and more than 73.3 µM with SN12C renal. For the same compound, the TGI in the assay on OVCAR-4 ovarian is more than 100 µM; with CAKI-1 renal it was 80.1 µM; with MALME-3M melanoma it was more than 89.2 µM; with HL-60(TB) leukemia, 11.1 µM; with RXF 393 renal, more than 100 µM; in the assay on HCT-116 colon, more than 57 µM. Also, the TGI in the assay with MCF7 breast was more than 75.9 µM; with 786-0 renal it was more than 70.3 µM; with NCI/ADR-RES ovarian, more than 94.8 µM; in the assay on SN12C renal it was more than 100 µM.

With `Nn1c(-c2ccc(Cl)cc2)nc2c(-c3ccc(Cl)cc3)nc3ccc(Cl)cc3c2c1=O`, the GI50 in the assay on OVCAR-4 ovarian is 3.55 µM; in the assay on CAKI-1 renal, 3.97 µM; in the assay with MALME-3M melanoma it was 21.3 µM; in the assay with HL-60(TB) leukemia, 2.76 µM; in the assay with RXF 393 renal it was 11.8 µM; in the assay on HCT-116 colon it was 5.79 µM. The GI50 in the assay with MCF7 breast was 4.1 µM; with 786-0 renal, 16.4 µM; in the assay on NCI/ADR-RES ovarian, 48.3 µM; in the assay on SN12C renal, 7.46 µM. Further, the TGI in the assay on OVCAR-4 ovarian is 15.1 µM; in the assay with CAKI-1 renal, 22 µM; in the assay with MALME-3M melanoma it was 65.4 µM; in the assay with HL-60(TB) leukemia, more than 100 µM; with RXF 393 renal it was 30.9 µM; in the assay with HCT-116 colon, more than 100 µM. Also, the TGI in the assay on MCF7 breast was more than 100 µM; with 786-0 renal it was 54.3 µM; with NCI/ADR-RES ovarian, more than 100 µM; in the assay on SN12C renal it was more than 100 µM.

With `CN1CC[C@H](c2c(O)cc(O)c3c(=O)cc(-c4ccccc4Cl)oc23)[C@H](O)C1`, the GI50 is 0.14 µM in the assay on OVCAR-4 ovarian; 0.154 µM with MALME-3M melanoma; 0.0508 µM in the assay on HL-60(TB) leukemia; 0.0204 µM in the assay on RXF 393 renal; 0.0123 µM in the assay with HCT-116 colon; 0.028 µM with MCF7 breast. Further, the GI50 with 786-0 renal was 0.0717 µM; with NCI/ADR-RES ovarian, 0.116 µM; in the assay with SN12C renal it was 0.0703 µM. Moreover, the TGI was 1.54 µM in the assay with OVCAR-4 ovarian; more than 10 µM in the assay on CAKI-1 renal; 0.594 µM in the assay with MALME-3M melanoma; more than 2.49 µM with HL-60(TB) leukemia; 0.0671 µM in the assay on RXF 393 renal; more than 10 µM in the assay on HCT-116 colon. Moreover, the TGI in the assay on MCF7 breast, in the assay with 786-0 renal, in the assay with NCI/ADR-RES ovarian and with SN12C renal was more than 10 µM in each case.

Turning to `CCOC(=O)[C@@H]1CSC(CC)=C(C(=O)O)N1`, the GI50 in the assay with OVCAR-4 ovarian, with CAKI-1 renal, in the assay on MALME-3M melanoma, in the assay with HL-60(TB) leukemia, in the assay on RXF 393 renal and in the assay with HCT-116 colon was more than 100 µM throughout. For the same compound, the GI50 with MCF7 breast, in the assay with 786-0 renal, in the assay on NCI/ADR-RES ovarian and in the assay on SN12C renal was more than 100 µM throughout. Further, the TGI in the assay with OVCAR-4 ovarian, in the assay with CAKI-1 renal, in the assay on MALME-3M melanoma, with HL-60(TB) leukemia, with RXF 393 renal and in the assay with HCT-116 colon was more than 100 µM throughout. The TGI in the assay on MCF7 breast, in the assay on 786-0 renal, with NCI/ADR-RES ovarian and with SN12C renal was more than 100 µM each time.

As for `COc1cccc(-c2nc3sccn3c2-c2ccnc(NCCCNS(=O)(=O)c3ccccc3)c2)c1`, the GI50 is 2.87 µM in the assay with OVCAR-4 ovarian; 2.81 µM in the assay with CAKI-1 renal; 2.59 µM in the assay with MALME-3M melanoma; 2.33 µM in the assay with HL-60(TB) leukemia; 5.79 µM with RXF 393 renal; 3.32 µM with HCT-116 colon. Further, the GI50 in the assay with MCF7 breast was 3.83 µM; with 786-0 renal it was 6.03 µM; with NCI/ADR-RES ovarian, 2.62 µM; with SN12C renal it was 2.76 µM. Moreover, the TGI with OVCAR-4 ovarian is more than 100 µM; in the assay with CAKI-1 renal, more than 100 µM; in the assay with MALME-3M melanoma, 9.73 µM; in the assay on HL-60(TB) leukemia it was 5.63 µM; in the assay on RXF 393 renal, more than 100 µM; in the assay with HCT-116 colon, more than 100 µM. The TGI with MCF7 breast is more than 100 µM; in the assay on 786-0 renal, more than 100 µM; with NCI/ADR-RES ovarian, 8.7 µM; in the assay on SN12C renal, more than 100 µM.
